Results taken from patent US9598423B2 (BRISTOL-MYERS SQUIBB COMPANY, priority 2013, dated 2017).
Like-named read-outs stand apart in the source and are kept apart here.

Columns and labels:
[1] = biological target: CK1δ (Homo sapiens (Human), UniProt P48730); assay: CK1δ kinase assay (Caliper LABCHIP electrophoretic separation of fluoresceinated peptide substrate and product); assay type: biochemical
Procedure, shortened: (§1)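 Incubated for twenty-two hours at ambient temperature, then quenched with EDTA and analyzed by electrophoretic separation of unphosphorylated and phosphorylated peptide.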

[2] = biological target: CK1ε (Homo sapiens (Human), UniProt P49674); assay: CK1ε kinase assay (Caliper LABCHIP electrophoretic separation of fluoresceinated peptide substrate and product); assay type: biochemical; conditions: 200 pM CK1ε, 50 μM ATP, 1.5 μM peptide substrate, 22 hours at room temperature; read-out: CK1ε (IC50)
Procedure, shortened: as §1

[3] = 200 pM CK1δ, 50 μM ATP, 1.5 μM peptide substrate, 22 hours at room temperature, read-out: CK1δ (IC50)

CK1ε, sequence (P49674 whole entry): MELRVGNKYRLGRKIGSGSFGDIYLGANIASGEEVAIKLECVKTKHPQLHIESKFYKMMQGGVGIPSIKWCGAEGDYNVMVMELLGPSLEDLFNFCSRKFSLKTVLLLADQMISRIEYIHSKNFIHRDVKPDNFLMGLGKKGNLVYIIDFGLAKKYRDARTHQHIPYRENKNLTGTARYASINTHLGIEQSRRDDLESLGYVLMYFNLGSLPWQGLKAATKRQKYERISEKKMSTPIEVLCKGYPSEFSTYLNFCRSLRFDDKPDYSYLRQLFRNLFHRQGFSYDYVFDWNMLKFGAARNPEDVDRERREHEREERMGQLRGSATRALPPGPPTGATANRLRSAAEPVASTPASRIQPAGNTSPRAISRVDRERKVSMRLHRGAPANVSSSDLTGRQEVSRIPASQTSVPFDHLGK
CK1δ, sequence (P48730 whole entry): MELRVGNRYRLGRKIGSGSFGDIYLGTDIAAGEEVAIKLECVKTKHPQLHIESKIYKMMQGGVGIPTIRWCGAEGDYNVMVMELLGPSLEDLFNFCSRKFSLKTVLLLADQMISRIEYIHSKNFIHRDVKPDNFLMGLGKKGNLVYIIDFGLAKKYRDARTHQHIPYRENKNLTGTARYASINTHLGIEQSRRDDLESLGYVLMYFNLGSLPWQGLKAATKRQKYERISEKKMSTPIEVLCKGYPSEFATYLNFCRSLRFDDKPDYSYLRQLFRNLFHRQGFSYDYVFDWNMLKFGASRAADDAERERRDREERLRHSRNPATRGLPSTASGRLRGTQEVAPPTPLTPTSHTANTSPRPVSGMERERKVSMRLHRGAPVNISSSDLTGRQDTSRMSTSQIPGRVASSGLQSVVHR

Molecule	IC50 [1, 3] [nM]	IC50 [2] [nM]	IC50 ([1]; CK1δ (IC50, nM)) [nM]
Cc1ccc(-c2nn3c(c2C(N)=O)CN(C(=O)Nc2ccc(C#N)c(C)c2)CC3)cc1Cl [Compound 249, 2-(3-Chloro-4-methylphenyl)-N^5-(4-cyano-3-methylphenyl)-6,7-dihydropyrazolo[1,5-a]pyrazine-3,5(4H)-dicarboxamide]	0.01 to 10	0.01 to 10	–
Cc1cc(-c2nn3c(c2C(N)=O)CN(C(=O)Nc2ccc(C#N)cc2)CC3)ccc1F [Compound 248, N^5-(4-Cyanophenyl)-2-(4-fluoro-3-methylphenyl)-6,7-dihydropyrazolo[1,5-a]pyrazine-3,5(4H)-dicarboxamide]	0.01 to 10	0.01 to 10	–
Cc1cc(NC(=O)N2CCn3nc(-c4cnc(F)c(Cl)c4)c(C(N)=O)c3C2)ccc1C#N [Compound 294, 2-(5-Chloro-6-fluoropyridin-3-yl)-N^5-(4-cyano-3-methylphenyl)-6,7-dihydropyrazolo[1,5-a] pyrazine-3,5(4H)-dicarboxamide]	0.01 to 10	0.01 to 10	–
Cc1cc(NC(=O)N2CCn3nc(-c4cc(Cl)c5[nH]ncc5c4)c(C(N)=O)c3C2)ccc1C#N [Compound 317, 2-(7-Chloro-1H-indazol-5-yl)-N^5-(4-cyano-3-methylphenyl)-6,7-dihydropyrazolo[1,5-a]pyrazine-3,5(4H)-dicarboxamide]	0.01 to 10	0.01 to 10	–
NC(=O)c1c(-c2cccc(Cl)c2)nn2c1CN(C(=O)Nc1ccc(N3CCCCC3)cc1)C[C@@H]2CF [Compound A11, (R)-2-(3-Chlorophenyl)-7-(fluoromethyl)-N^5-(4-(piperidin-1-yl)phenyl)-6,7-dihydropyrazolo[1,5-a]pyrazine-3,5(4H)-dicarboxamide]	0.01 to 10	0.01 to 10	–
N#Cc1ccc(NC(=O)N2Cc3c(C(N)=O)c(-c4cccc(F)c4)nn3C3(CC3)C2)cc1 [Compound A87, N^5′-(4-Cyanophenyl)-2′-(3-fluorophenyl)-4′H-spiro[cyclopropane-1,7′-pyrazolo[1,5-a]pyrazine]-3′,5′(6′H)-dicarboxamide]	0.01 to 10	0.01 to 10	–
Cc1cc(NC(=O)N2CCn3nc(-c4cccc(F)c4)c(C(N)=O)c3C2)ccc1C#N [Compound A55, N^5-(4-Cyano-3-methylphenyl)-2-(3-fluorophenyl)-6,7-dihydropyrazolo[1,5-a]pyrazine-3,5(4H)-dicarboxamide]	0.01 to 10	0.01 to 10	–
NC(=O)c1c(-c2cccc(F)c2)nn2c1CN(C(=O)NC13CC4CC(O)(CC(F)(C4)C1)C3)CC2 (stereo not shown) [Compound 94, N^5-(3-Fluoro-5-hydroxyadamantan-1-yl)-2-(3-fluorophenyl)-6,7-dihydropyrazolo[1,5-a]pyrazine-3,5(4H)-dicarboxamide]	0.01 to 10	0.01 to 10	–
N#Cc1ccc(NC(=O)N2CCn3nc(-c4cccc(F)c4)c(C(N)=O)c3C2)cc1C(F)(F)F [Compound 38, N^5-(4-Cyano-3-(trifluoromethyl)phenyl)-2-(3-fluorophenyl)-6,7-dihydropyrazolo[1,5-a]pyrazine-3,5(4H)-dicarboxamide]	0.01 to 10	0.01 to 10	–
N-(tert-Butyl)-2-(3,4-dichlorophenyl)-7-methyl-6,7-dihydropyrazolo[1,5-a]pyrazine-3,5(4H)-dicarboxamide [Compound A32]	0.01 to 10	0.01 to 10	–
COc1cccc(-c2nn3c(c2C(N)=O)CN(C(=O)Nc2ccc(Cl)c(Cl)c2)CC3)c1 [Compound 303, N^5-(3,4-Dichlorophenyl)-2-(3-methoxyphenyl)-6,7-dihydropyrazolo[1,5-a] pyrazine-3,5(4H)-dicarboxamide]	0.01 to 10	0.01 to 10	–
Cc1ccc(-c2nn3c(c2C(N)=O)CN(C(=O)Nc2ccc4c(c2)OC(F)(F)O4)CC3)cc1Cl [Compound 250, 2-(3-Chloro-4-methylphenyl)-N^5-(2,2-difluorobenzo[d][1,3]dioxol-5-yl)-6,7-dihydropyrazolo[1,5-a] pyrazine-3,5(4H)-dicarboxamide]	0.01 to 10	0.01 to 10	–
Cc1n[nH]c2c(Cl)cc(-c3nn4c(c3C(N)=O)CN(C(=O)Nc3ccc(C#N)cc3)CC4)cc12 [Compound 320, 2-(7-Chloro-3-methyl-1H-indazol-5-yl)-N^5-(4-cyanophenyl)-6,7-dihydropyrazolo[1,5-a]pyrazine-3,5(4H)-dicarboxamide]	0.01 to 10	0.01 to 10	–
Cc1cc(NC(=O)N2CCn3nc(-c4cc(F)c5cn[nH]c5c4)c(C(N)=O)c3C2)ccc1C#N [Compound 325, N^5-(4-Cyano-3-methylphenyl)-2-(4-fluoro-1H-indazol-6-yl)-6,7-dihydropyrazolo[1,5-a]pyrazine-3,5(4H)-dicarboxamide]	0.01 to 10	0.01 to 10	–
Cc1ncc(-c2ccc(NC(=O)N3CCn4nc(-c5cccc(Cl)c5)c(C(N)=O)c4C3)cc2)o1 [Compound A47, 2-(3-Chlorophenyl)-N^5-(4-(2-methyloxazol-5-yl)phenyl)-6,7-dihydropyrazolo[1,5-a]pyrazine-3,5(4H)-dicarboxamide]	0.01 to 10	0.01 to 10	–
NC(=O)c1c(-c2cc(Cl)c(F)c(Cl)c2)nn2c1CN(C(=O)Nc1ccc(F)c(F)c1)CC2 [Compound 260, 2-(3,5-Dichloro-4-fluorophenyl)-N^5-(3,4-difluorophenyl)-6,7-dihydropyrazolo[1,5-a] pyrazine-3,5(4H)-dicarboxamide]	0.01 to 10	0.01 to 10	–
N#Cc1ccc(NC(=O)N2Cc3c(C(N)=O)c(-c4ccc(F)c(Cl)c4)nn3CC23CC3)cc1C(F)(F)F [Compound 345, 2′-(3-Chloro-4-fluorophenyl)-N^5′-(4-cyano-3-(trifluoromethyl)phenyl)-4′H-spiro[cyclopropane-1,6′-pyrazolo[1,5-a]pyrazine]-3′,5′(7′H)-dicarboxamide]	–	10 to 100	10 to 100
Cc1cc(F)cc(-c2nn3c(c2C(N)=O)CN(C(=O)Nc2ccc(C#N)c(Cl)c2)CC3)c1 [Compound 230, N^5-(3-Chloro-4-cyanophenyl)-2-(3-fluoro-5-methylphenyl)-6,7-dihydropyrazolo[1,5-a] pyrazine-3,5(4H)-dicarboxamide]	0.01 to 10	0.01 to 10	–
CC(C)(O)[C@H]1CN(C(=O)Nc2ccc(C#N)cc2)Cc2c(C(N)=O)c(-c3ccc(Cl)c(Cl)c3)nn21 (single isomer, unassigned) [Compound A35, N^5-(4-Cyanophenyl)-2-(3,4-dichlorophenyl)-7-(2-hydroxypropan-2-yl)-6,7-dihydropyrazolo[1,5-a]pyrazine-3,5(4H)-dicarboxamide]	0.01 to 10	0.01 to 10	–
Cc1ccc(-c2nn3c(c2C(N)=O)CN(C(=O)Nc2ccc4c(c2)CS(=O)(=O)C4)CC3)cc1Cl [Compound 251, 2-(3-Chloro-4-methylphenyl)-N^5-(2,2-dioxido-1,3-dihydrobenzo[c]thiophen-5-yl)-6,7-dihydropyrazolo[1,5-a] pyrazine-3,5(4H)-dicarboxamide]	0.01 to 10	0.01 to 10	–
CC(C)(C)NC(=O)N1CCn2nc(-c3ccc(F)cc3F)c(C(N)=O)c2C1 [Compound 124, N^5-(tert-Butyl)-2-(2,4-difluorophenyl)-6,7-dihydropyrazolo[1,5-a]pyrazine-3,5(4H)-dicarboxamide]	100 to 2000	100 to 2000	–
NC(=O)c1c(-c2ccc(F)c(Cl)c2)nn2c1CN(C(=O)Nc1cc(C(F)(F)F)cc(C(F)(F)F)c1)CC2 [Compound 188, N^5-(3,5-Bis(trifluoromethyl)phenyl)-2-(3-chloro-4-fluorophenyl)-6,7-dihydropyrazolo[1,5-a] pyrazine-3,5(4H)-dicarboxamide]	0.01 to 10	0.01 to 10	–
Cc1cc(-c2nn3c(c2C(N)=O)CN(C(=O)Nc2ccc(C#N)c(C(F)(F)F)c2)CC3)ccc1F [Compound 245, N^5-(4-Cyano-3-(trifluoromethyl)phenyl)-2-(4-fluoro-3-methylphenyl)-6,7-dihydropyrazolo[1,5-a] pyrazine-3,5(4H)-dicarboxamide]	0.01 to 10	0.01 to 10	–
NC(=O)c1c(-c2cccc(F)c2)nn2c1CN(C(=O)Nc1ccc(F)c(Cl)c1)CC2 [Compound 60, N^5-(3-Chloro-4-fluorophenyl)-2-(3-fluorophenyl)-6,7-dihydropyrazolo[1,5-a]pyrazine-3,5(4H)-dicarboxamide]	0.01 to 10	0.01 to 10	–
NC(=O)c1c(-c2cc(F)cc(Cl)c2)nn2c1CN(C(=O)Nc1ccc(Cl)c(Cl)c1)CC2 [Compound 217, 2-(3-Chloro-5-fluorophenyl)-N^5-(3,4-dichlorophenyl)-6,7-dihydropyrazolo[1,5-a] pyrazine-3,5(4H)-dicarboxamide]	0.01 to 10	0.01 to 10	–
COc1cccc(NC(=O)N2CCn3nc(-c4cccc(Cl)c4)c(C(N)=O)c3C2)c1 [Compound 170, 2-(3-Chlorophenyl)-N^5-(3-methoxyphenyl)-6,7-dihydropyrazolo[1,5-a] pyrazine-3,5(4H)-dicarboxamide]	0.01 to 10	0.01 to 10	–
CC1Cn2nc(-c3cccc(Cl)c3)c(C(N)=O)c2CN1C(=O)Nc1ccc(C#N)cc1 (single isomer, unassigned) [Compound 331, 2-(3-Chlorophenyl)-N^5-(4-cyanophenyl)-6-methyl-6,7-dihydropyrazolo[1,5-a]pyrazine-3,5(4H)-dicarboxamide]	0.01 to 10	0.01 to 10	–
Cc1cccc(-c2nn3c(c2C(N)=O)CN(C(=O)Nc2ccc(C#N)cc2)CC3)c1 [Compound 289, N^5-(4-Cyanophenyl)-2-(m-tolyl)-6,7-dihydropyrazolo [1,5-a]pyrazine-3,5(4H)-dicarboxamide]	0.01 to 10	0.01 to 10	–
COc1cc(NC(=O)N2CCn3nc(-c4cccc(Cl)c4)c(C(N)=O)c3C2)ccc1C#N [Compound A40, 2-(3-Chlorophenyl)-N^5-(4-cyano-3-methoxyphenyl)-6,7-dihydropyrazolo[1,5-a]pyrazine-3,5(4H)-dicarboxamide]	0.01 to 10	0.01 to 10	–
